Reference: the supplement of paper PMC10307832

How the values were obtained:
Assay in all cases: relative viability (nuclei count vs DMSO), 5 days (fraction); higher = more cells survive
[1] = compound: N=C1NC(=O)/C(=C/c2ccc(O)cc2)S1 [Mirin] + CC(=O)c1c(C)c2cnc(Nc3ccc(N4CCNCC4)cn3)nc2n(C2CCCC2)c1=O [Palbociclib] (partner 0.5 µM)
Summary of the method: (§1)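 Each reported value is a median over duplicate plates. It expresses relative viability: treated-well nuclei count divided by vehicle-well nuclei count. Lung cancer cell lines in 1536-well plates were dosed by pin tool a day after seeding, alone with one drug or with a fixed anchor-drug dose plus five library-drug doses (not always all listed) in √10 steps, and nuclei were counted after 5 days.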

[2] = compound: N=C1NC(=O)/C(=C/c2ccc(O)cc2)S1 [Mirin] + CS(=O)(=O)CCNCc1ccc(-c2ccc3ncnc(Nc4ccc(OCc5cccc(F)c5)c(Cl)c4)c3c2)o1 [Lapatinib] (partner 2 µM)
Summary of the method: as §1

[3] = compound: CCn1c(-c2nonc2N)nc2cnc(Oc3cccc(NC(=O)c4ccc(OCCN5CCOCC5)cc4)c3)cc21 + CC1(C)CCC(c2ccc(Cl)cc2)=C(CN2CCN(c3ccc(C(=O)NS(=O)(=O)c4ccc(N[C@H](CCN5CCOCC5)CSc5ccccc5)c(S(=O)(=O)C(F)(F)F)c4)cc3)CC2)C1 [Navitoclax] (partner 0.5 µM)
Summary of the method: as §1

[4] = compound: N=C1NC(=O)/C(=C/c2ccc(O)cc2)S1 [Mirin] + CCNC(=O)c1noc(-c2cc(C(C)C)c(O)cc2O)c1-c1ccc(CN2CCOCC2)cc1 [Luminespib] (partner 0.01 µM)
Summary of the method: as §1

Row | Cell Line | relative viability ([1]; first compound 0.25 µM) | relative viability ([1]; first compound 0.7906 µM) | relative viability ([1]; first compound 2.5 µM) | relative viability ([1]; first compound 7.906 µM) | relative viability ([1]; first compound 25 µM) | relative viability ([2]; first compound 0.25 µM) | relative viability ([2]; first compound 0.7906 µM) | relative viability ([2]; first compound 2.5 µM) | relative viability ([2]; first compound 7.906 µM) | relative viability ([2]; first compound 25 µM) | relative viability ([3]; first compound 0.04 µM) | relative viability ([3]; first compound 0.1265 µM) | relative viability ([3]; first compound 0.4 µM) | relative viability ([3]; first compound 1.265 µM) | relative viability ([3]; first compound 4 µM) | relative viability ([4]; first compound 0.25 µM) | relative viability ([4]; first compound 0.7906 µM) | relative viability ([4]; first compound 2.5 µM) | relative viability ([4]; first compound 7.906 µM) | relative viability ([4]; first compound 25 µM)
1 | HCC-78 | 0.536 | 0.41 | 0.453 | 0.505 | 0.381 | 0.921 | 0.761 | 0.837 | 0.774 | 0.552 | 1.05 | 0.782 | 0.848 | 0.878 | 0.926 |  |  |  |  | 
2 | HCC-366 | 0.35 | 0.39 | 0.405 | 0.404 | 0.366 | 1.06 | 0.957 | 1.07 | 0.986 | 0.752 | 1.25 | 1.14 | 1.04 | 0.178 | 0.0486 |  |  |  |  | 
3 | HCC-827 | 0.524 | 0.37 | 0.459 | 0.439 | 0.418 | 0.167 | 0.182 | 0.17 | 0.2 | 0.227 | 1.09 | 0.98 | 0.982 | 1.02 | 0.841 | 0.673 | 0.665 | 0.724 | 0.841 | 1.03
4 | HOP-62 | 0.465 | 0.536 | 0.46 | 0.381 | 0.458 | 1.05 | 1.16 | 1.01 |  | 1.23 | 1.26 | 1.07 | 1.05 |  | 1.06 | 0.956 | 0.987 | 0.923 | 1.05 | 1.03
5 | IA-LM |  |  |  |  |  | 0.676 | 0.851 | 1.09 | 0.431 | 0.608 | 1.06 | 1.03 | 0.781 | 0.799 | 0.725 |  |  |  |  | 
6 | LC-2-ad | 0.543 | 0.456 | 0.474 | 0.505 | 0.483 | 0.967 | 1.03 | 0.947 | 0.783 | 0.98 | 0.522 | 0.439 | 0.508 | 0.214 | 0.167 | 1.02 | 0.837 | 1.05 | 0.968 | 0.721
7 | LCLC-97TM1 | 0.227 | 0.236 | 0.192 | 0.152 | 0.198 | 1.04 | 0.594 | 0.857 | 0.867 | 1 | 0.481 | 0.333 |  | 0.463 | 0.442 | 0.672 | 0.646 | 0.679 | 0.63 | 0.495
8 | LCLC-103H | 0.421 | 0.518 | 0.515 | 0.458 | 0.451 |  |  |  |  |  |  |  |  |  |  | 0.931 | 1.06 | 0.93 | 1.05 | 1
9 | LK-2 | 0.538 |  | 0.774 | 0.463 | 0.188 | 0.787 |  | 0.879 | 0.593 | 0.496 | 0.989 | 0.928 | 0.467 | 0.349 | 0.686 | 0.148 |  | 0.19 | 0.153 | 0.133
10 | LOU-NH91 | 0.548 | 0.569 | 0.529 | 0.519 | 0.555 | 0.786 |  | 0.782 | 0.774 | 0.702 | 0.8 | 0.597 | 0.557 | 0.392 | 0.447 | 0.304 | 0.301 | 0.351 | 0.322 | 0.295
11 | LU99A | 0.412 | 0.339 | 0.425 | 0.358 | 0.339 | 1.05 | 0.79 | 0.888 | 0.809 | 0.749 | 0.98 | 0.82 | 0.841 | 0.849 | 0.741 | 0.199 | 0.207 | 0.225 | 0.209 | 0.211
12 | NCI-H358 | 0.127 | 0.145 | 0.148 | 0.139 | 0.199 | 0.466 | 0.514 | 0.489 | 0.52 | 0.379 |  |  |  |  |  | 0.562 | 0.408 | 0.502 | 0.36 | 0.413
13 | NCI-H441 | 0.259 | 0.232 | 0.241 | 0.242 | 0.175 |  |  |  |  |  | 0.745 | 0.653 | 0.481 | 0.323 | 0.508 | 0.377 | 0.321 | 0.343 | 0.269 | 0.282
14 | NCI-H522 | 1.02 | 0.943 | 1.19 | 0.875 | 0.605 |  |  |  |  |  |  |  |  |  |  | 0.884 | 1.11 | 1.23 | 0.875 | 0.801
15 | NCI-H596 |  |  |  |  |  | 1.1 | 1.07 | 1.04 | 1.1 | 0.983 | 1.06 | 0.962 | 1.01 | 1.01 | 1.01 | 0.931 | 0.984 | 1.06 | 0.955 | 0.905
16 | NCI-H650 | 0.306 | 0.399 | 0.333 | 0.265 | 0.38 | 0.943 |  | 0.902 |  | 1.02 |  |  |  |  |  | 0.741 | 0.7 | 0.857 |  | 0.811
17 | NCI-H661 | 0.416 | 0.426 | 0.406 | 0.369 | 0.401 | 0.407 | 0.567 | 0.539 | 0.442 | 0.392 |  |  |  |  |  | 0.929 | 1.03 | 0.945 | 0.978 | 0.97
18 | NCI-H1299 |  |  |  |  |  | 0.984 | 0.973 | 0.977 | 1.01 | 1.12 | 1.02 | 1.01 | 0.887 | 0.885 | 0.803 |  |  |  |  | 
19 | NCI-H1563 |  |  |  |  |  | 1.05 | 1.09 | 1.09 | 0.867 | 0.853 |  |  |  |  |  | 0.54 | 0.6 | 0.476 | 0.589 | 0.5
20 | NCI-H1623 |  |  |  |  |  |  |  |  |  |  |  |  |  |  |  | 0.547 | 0.506 | 0.574 | 0.449 | 0.325
21 | NCI-H1648 | 0.328 |  | 0.304 | 0.265 | 0.224 |  |  |  |  |  |  |  |  |  |  |  |  |  |  | 
22 | NCI-H1703 |  |  |  |  |  | 1.11 | 1.23 | 1.29 | 0.768 | 0.826 | 1.03 | 0.886 | 0.474 | 0.296 | 0.233 |  |  |  |  | 
23 | NCI-H2342 | 0.482 | 0.537 | 0.459 |  | 0.51 |  |  |  |  |  |  |  |  |  |  | 0.671 | 0.815 | 0.753 | 0.592 | 0.7
24 | SW 900 | 0.478 | 0.485 | 0.499 | 0.464 | 0.503 |  |  |  |  |  |  |  |  |  |  | 0.164 | 0.178 | 0.206 | 0.174 | 0.154
